Assay results taken from patent US8969325B2, “TRPV1 antagonists” (AbbVie Inc., priority 2011, dated 2015).

What was measured:
human TRPV1 [1] = biological target: T1, human TRPV1 (Homo sapiens (Human), UniProt Q8NER1); test: Acid Activation Assay (pH 5.0, intracellular Ca2+, FLIPR); assay type: cell-based; settings: percentage of the maximal pH 5.0-induced response remaining; recombinant HEK293 hTRPV1 cells; maximum concentration tested 37.5 μM
Summary of the method: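 HEK293 cells stably expressing recombinant hTRPV1, loaded with Calcium-4 dye 90-120 min at 25° C. Compounds added over a 12-point half-log range (top 37.5 μM), then pH 5.0 DPBS/MES challenge after 3 min; FLIPR peak fluorescence over baseline given as % of maximal pH 5.0 response.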

human TRPV1 [2] = biological target: T1, human TRPV1; test: Capsaicin Activation Assay (intracellular Ca2+, FLIPR); assay type: cell-based; settings: recombinant HEK293 cells expressing hTRPV1, 50 nM capsaicin
Summary of the method: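 Stably transfected HEK293 cells expressing human TRPV1 cDNA, plated the day before in poly-D-lysine plates. Compounds serially diluted from 10 mM DMSO stocks; intracellular Ca2+ fluorescence read on FLIPR at 1 to 5 second intervals.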

T1 sequence (Q8NER1 whole entry): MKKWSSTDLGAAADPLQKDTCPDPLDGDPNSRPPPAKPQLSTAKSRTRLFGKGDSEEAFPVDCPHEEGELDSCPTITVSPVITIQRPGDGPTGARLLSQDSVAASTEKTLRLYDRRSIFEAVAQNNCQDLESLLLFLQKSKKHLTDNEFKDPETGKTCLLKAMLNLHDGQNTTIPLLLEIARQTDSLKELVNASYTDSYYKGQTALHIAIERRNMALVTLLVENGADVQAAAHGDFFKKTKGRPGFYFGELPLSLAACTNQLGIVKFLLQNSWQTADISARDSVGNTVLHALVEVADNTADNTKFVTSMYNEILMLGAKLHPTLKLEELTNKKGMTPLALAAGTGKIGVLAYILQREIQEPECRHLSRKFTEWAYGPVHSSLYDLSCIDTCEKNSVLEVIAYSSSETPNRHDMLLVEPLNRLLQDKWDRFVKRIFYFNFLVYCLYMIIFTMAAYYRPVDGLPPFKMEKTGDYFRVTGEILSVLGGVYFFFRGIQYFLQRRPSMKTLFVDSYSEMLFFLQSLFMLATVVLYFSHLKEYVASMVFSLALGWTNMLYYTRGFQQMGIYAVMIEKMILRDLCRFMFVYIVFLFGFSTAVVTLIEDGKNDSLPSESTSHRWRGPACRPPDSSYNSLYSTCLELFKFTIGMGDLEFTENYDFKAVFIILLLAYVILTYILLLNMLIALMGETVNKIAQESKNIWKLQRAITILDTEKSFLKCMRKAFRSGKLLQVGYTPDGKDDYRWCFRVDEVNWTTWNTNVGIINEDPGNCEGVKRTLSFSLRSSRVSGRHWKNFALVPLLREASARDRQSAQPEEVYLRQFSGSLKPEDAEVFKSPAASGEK

human TRPV1 H^+ (max % remain) (human TRPV1 [1]) | IC50 (human TRPV1 [2]) | SMILES
5% | 130 nM | CCC1(CC)C[C@@H](NC(=O)Nc2cccc3c2CNC(=O)N3C)c2ccc(C(F)(F)F)cc2O1 [Example 144, 1-[(4R)-2,2-diethyl-7-(trifluoromethyl)-3,4-dihydro-2H-chromen-4-yl]-3-(1-methyl-2-oxo-1,2,3,4-tetrahydroquinazolin-5-yl)urea]
15% | 38 nM | CN1C(=O)NCc2c(NC(=O)N[C@@H]3CC(CF)(CF)Oc4cc(C(F)(F)F)ccc43)cccc21 [Example 146, 1-[(4R)-2,2-bis(fluoromethyl)-7-(trifluoromethyl)-3,4-dihydro-2H-chromen-4-yl]-3-(1-methyl-2-oxo-1,2,3,4-tetrahydroquinazolin-5-yl)urea]
15% | 600 nM | CCC1(CC)C[C@@H](NC(=O)Nc2cccc3c2CNC(=O)N3C)c2ccc(Cl)c(Cl)c2O1 [Example 147, 1-[(4R)-7,8-dichloro-2,2-diethyl-3,4-dihydro-2H-chromen-4-yl]-3-(1-methyl-2-oxo-1,2,3,4-tetrahydroquinazolin-5-yl)urea]
33% | 100 nM | CN1C(=O)NCc2c(NC(=O)N[C@@H]3CC(CF)(CF)Oc4c(Cl)cccc43)cccc21 [Example 148, 1-[(4R)-8-chloro-2,2-bis(fluoromethyl)-3,4-dihydro-2H-chromen-4-yl]-3-(1-methyl-2-oxo-1,2,3,4-tetrahydroquinazolin-5-yl)urea]
16% | 120 nM | CN1C(=O)NCc2c(NC(=O)N[C@@H]3CC(CF)(CF)Oc4cc(OC(F)(F)F)ccc43)cccc21 [Example 149, 1-[(4R)-2,2-bis(fluoromethyl)-7-(trifluoromethoxy)-3,4-dihydro-2H-chromen-4-yl]-3-(1-methyl-2-oxo-1,2,3,4-tetrahydroquinazolin-5-yl)urea]
20% | 16 nM | CN1C(=O)NCc2c(NC(=O)N[C@@H]3CC(C)(C)Oc4cc(C(F)(F)F)ccc43)cccc21 [Example 150, 1-[(4R)-2,2-dimethyl-7-(trifluoromethyl)-3,4-dihydro-2H-chromen-4-yl]-3-(1-methyl-2-oxo-1,2,3,4-tetrahydroquinazolin-5-yl)urea]
53% | 170 nM | CCCC1(CCC)C[C@@H](NC(=O)Nc2cccc3c2CNC(=O)N3C)c2cc(F)ccc2O1 [Example 151, 1-[(4R)-6-fluoro-2,2-dipropyl-3,4-dihydro-2H-chromen-4-yl]-3-(1-methyl-2-oxo-1,2,3,4-tetrahydroquinazolin-5-yl)urea]
22% | 470 nM | CN1C(=O)NCc2c(NC(=O)N[C@@H]3CC(CF)(CF)Oc4ccc(F)cc43)cccc21 [Example 152, 1-[(4R)-6-fluoro-2,2-bis(fluoromethyl)-3,4-dihydro-2H-chromen-4-yl]-3-(1-methyl-2-oxo-1,2,3,4-tetrahydroquinazolin-5-yl)urea]
23% | 170 nM | CN1C(=O)NCc2c(NC(=O)N[C@@H]3CC(CF)(CF)Oc4c(F)cc(F)cc43)cccc21 [Example 153, 1-[(4R)-6,8-difluoro-2,2-bis(fluoromethyl)-3,4-dihydro-2H-chromen-4-yl]-3-(1-methyl-2-oxo-1,2,3,4-tetrahydroquinazolin-5-yl)urea]
20% | 15 nM | CN1C(=O)NCc2c(NC(=O)N[C@@H]3CC4(CCC4)Oc4ccc(F)cc43)cccc21 [Example 154, 1-[(4R)-6-fluoro-3,4-dihydrospiro[chromene-2,1′-cyclobutan]-4-yl]-3-(1-methyl-2-oxo-1,2,3,4-tetrahydroquinazolin-5-yl)urea]
20% | 16 nM | CCC1(CC)C[C@@H](NC(=O)Nc2cccc3c2CNC(=O)N3C)c2cc(F)ccc2O1 [Example 155, 1-[(4R)-2,2-diethyl-6-fluoro-3,4-dihydro-2H-chromen-4-yl]-3-(1-methyl-2-oxo-1,2,3,4-tetrahydroquinazolin-5-yl)urea]
67% | 190 nM | CCCC1(CCC)C[C@@H](NC(=O)Nc2cccc3c2CNC(=O)N3C)c2cccc(F)c2O1 [Example 156, 1-[(4R)-8-fluoro-2,2-dipropyl-3,4-dihydro-2H-chromen-4-yl]-3-(1-methyl-2-oxo-1,2,3,4-tetrahydroquinazolin-5-yl)urea]
36% | 47 nM | CN1C(=O)NCc2c(NC(=O)N[C@@H]3CC(C)(C)Oc4ccc(F)cc43)cccc21 [Example 157, 1-[(4R)-6-fluoro-2,2-dimethyl-3,4-dihydro-2H-chromen-4-yl]-3-(1-methyl-2-oxo-1,2,3,4-tetrahydroquinazolin-5-yl)urea]
21% | 600 nM | CN1C(=O)NCc2c(NC(=O)N[C@@H]3CCOc4cc(F)ccc43)cccc21 [Example 159, 1-[(4R)-7-fluoro-3,4-dihydro-2H-chromen-4-yl]-3-(1-methyl-2-oxo-1,2,3,4-tetrahydroquinazolin-5-yl)urea]
23% | 42 nM | CN1C(=O)NCc2c(NC(=O)N[C@@H]3CCOc4cc(C(F)(F)F)ccc43)cccc21 [Example 160, 1-(1-methyl-2-oxo-1,2,3,4-tetrahydroquinazolin-5-yl)-3-[(4R)-7-(trifluoromethyl)-3,4-dihydro-2H-chromen-4-yl]urea]
9% | 95 nM | CN1C(=O)NCc2c(NC(=O)NC3COc4cc(Cl)ccc4C3)cccc21 (stereo not drawn) [Example 161, 1-(7-chloro-3,4-dihydro-2H-chromen-3-yl)-3-(1-methyl-2-oxo-1,2,3,4-tetrahydroquinazolin-5-yl)urea]
0% | 130 nM | CCN1C(=O)NCc2c(NC(=O)N[C@@H]3CC(CF)(CF)Oc4cc(Cl)ccc43)cccc21 [Example 162, 1-[(4R)-7-chloro-2,2-bis(fluoromethyl)-3,4-dihydro-2H-chromen-4-yl]-3-(1-ethyl-2-oxo-1,2,3,4-tetrahydroquinazolin-5-yl)urea]
33% | 220 nM | CN1C(=O)NCc2c(NC(=O)N[C@@H]3C[C@](C)(CF)Oc4ccccc43)cccc21 [Example 163, 1-[(2R,4R)-2-(fluoromethyl)-2-methyl-3,4-dihydro-2H-chromen-4-yl]-3-(1-methyl-2-oxo-1,2,3,4-tetrahydroquinazolin-5-yl)urea]
35% | 120 nM | CN1C(=O)NCc2c(NC(=O)N[C@@H]3C[C@@](C)(CF)Oc4ccccc43)cccc21 [Example 164, 1-[(2S,4R)-2-(fluoromethyl)-2-methyl-3,4-dihydro-2H-chromen-4-yl]-3-(1-methyl-2-oxo-1,2,3,4-tetrahydroquinazolin-5-yl)urea]
18% | 3 nM | CN1C(=O)NCc2c(NC(=O)N[C@@H]3C[C@@](C)(C(F)(F)F)Oc4ccccc43)cccc21 [Example 165, 1-(1-methyl-2-oxo-1,2,3,4-tetrahydroquinazolin-5-yl)-3-[(2S,4R)-2-methyl-2-(trifluoromethyl)-3,4-dihydro-2H-chromen-4-yl]urea]
10% | 1 nM | CN1C(=O)NCc2c(NC(=O)N[C@@H]3C[C@](C)(C(F)(F)F)Oc4ccccc43)cccc21 [Example 166, 1-(1-methyl-2-oxo-1,2,3,4-tetrahydroquinazolin-5-yl)-3-[(2R,4R)-2-methyl-2-(trifluoromethyl)-3,4-dihydro-2H-chromen-4-yl]urea]
5% | 5 nM | CN1Cc2c(NC(=O)N[C@@H]3CC(CF)(CF)Oc4cc(Cl)ccc43)cccc2N(C)C1=O [Example 167, 1-[(4R)-7-chloro-2,2-bis(fluoromethyl)-3,4-dihydro-2H-chromen-4-yl]-3-(1,3-dimethyl-2-oxo-1,2,3,4-tetrahydroquinazolin-5-yl)urea]
28% | 1200 nM | CN1C(=O)NCc2c(NC(=O)N[C@@H]3CCOc4ccccc43)cccc21 [Example 168, 1-[(4R)-3,4-dihydro-2H-chromen-4-yl]-3-(1-methyl-2-oxo-1,2,3,4-tetrahydroquinazolin-5-yl)urea]
96% | > 38000 nM | CN1C(=O)NCc2c(NC(=O)N[C@H]3CCOc4cc(OC(F)(F)F)ccc43)cccc21 [Example 169, 1-(1-methyl-2-oxo-1,2,3,4-tetrahydroquinazolin-5-yl)-3-[(4S)-7-(trifluoromethoxy)-3,4-dihydro-2H-chromen-4-yl]urea]
16% | 130 nM | CN1Cc2ccc(NC(=O)N[C@@H]3CC(CF)(CF)Oc4cc(Cl)ccc43)cc2NC1=O [Example 170, 1-[(4R)-7-chloro-2,2-bis(fluoromethyl)-3,4-dihydro-2H-chromen-4-yl]-3-(3-methyl-2-oxo-1,2,3,4-tetrahydroquinazolin-7-yl)urea]
63% | 1300 nM | CN1Cc2ccc(NC(=O)N[C@@H]3C[C@@](C)(C(F)F)Oc4ccccc43)cc2NC1=O [Example 171, 1-[(2S,4R)-2-(difluoromethyl)-2-methyl-3,4-dihydro-2H-chromen-4-yl]-3-(3-methyl-2-oxo-1,2,3,4-tetrahydroquinazolin-7-yl)urea]
51% | 210 nM | CN1Cc2ccc(NC(=O)N[C@@H]3CC(C)(C)Oc4c3ccc(F)c4Cl)cc2NC1=O [Example 172, 1-[(4R)-8-chloro-7-fluoro-2,2-dimethyl-3,4-dihydro-2H-chromen-4-yl]-3-(3-methyl-2-oxo-1,2,3,4-tetrahydroquinazolin-7-yl)urea]
